Test results as given in patent US9371351B2, “Glycomimetics as Pseudomonas aeruginosa lectin inhibitors” (priority 2012, dated 2016).

How the values were obtained:
LecB [1] = target: T1, LecB (Pseudomonas aeruginosa, UniProt Q9HYN5); experiment: biochemical; format: binding; details: for rIC50 (MeMan): IC50 relative to Me-α-Man, below 1 = stronger ligand than Me-α-Man
Method: A LecB competition assay was carried out by a novel fluorescence polarization assay developed by the inventors of the present invention. To date, an enzyme-linked lectin assay (ELLA) is widely used for the evaluation in screening of the binding potential of ligands to LecB. This allows the evaluation of molecules over a broad affinity range, including monovalent ligands and oligomeric dendrimers thereof. ELLAs have been developed based on enzyme-linked immunosorbent assays (ELISA). […] Furthermore, the current ELLA protocol involves either a surface immobilization of LecB or a covalent modification of the lectin, which could interfere with ligand binding. Consequently, hits from the ELLA are usually further characterized by direct measurement of the binding process of the ligand with the native, unmodified protein using microcalorimetry, requiring large amounts of protein.
In this assay format, the displacement of a fluorescently-labeled reporter ligand bound to the receptor by an inhibitor can be measured by mixing protein, inhibitor and reporter ligand in a given buffer system.
Similar conditions were applied, but the protein concentration was fixed at 150 nM. […] The resulting sigmoidal data points on the logarithmic inhibitor concentration scale were used to fit a one-site inhibition model and obtain IC50 values.
After addition of the reagents, the microtiter plates were centrifuged at 800 rpm for 1 min at 23° C. and incubated for 6 h at room temperature. The fluorescence was measured on a Tecan […] F500 plate reader (Tecan Austria GmbH) with excitation filters at 485 nm and emission filters at 535 nm in black 384-well microtiter plates (Greiner Bio-One). The G-factor was set on 0.92154 and the gain to 80. The measured intensities were reduced by buffer values. The data were analyzed with Graphpad Prism 5 and fitted according to the four parameter variable slope model.

LecB [2] = target: T1, LecB; experiment: biochemical; format: binding; details: for kd: SPR, 1:1 binding model; for kon: pH 7.4, read-out: ka

T1 sequence (Q9HYN5 entry or part of it): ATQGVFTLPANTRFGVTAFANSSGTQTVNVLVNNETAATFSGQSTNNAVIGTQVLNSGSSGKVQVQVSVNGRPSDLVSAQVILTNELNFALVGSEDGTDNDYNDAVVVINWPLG

CO[C@H]1O[C@H](CNC(=O)c2ccc([N+](=O)[O-])cc2)[C@@H](O)[C@H](O)[C@@H]1O [11r, Methyl 6-(4-nitrobenzoylamido)-6-deoxy-α-D-mannopyranoside]
IC50 (LecB [1]): 206 µM
rIC50 (MeMan) (LecB [1]): 0.94

CC1OC(CNC(=O)/C=C/c2ccccc2)C(O)C(O)[C@@H]1O (stereo partly drawn) [compound 13, N-(6S-Methyl-3R,4R,5R-trihydroxy-tetrahydropyranosyl-2R-methyl)-cinnamide]
rIC50 (MeMan) (LecB [1]): 0.1
kd (LecB [2]): 0.00041 s⁻¹
kon (LecB [2]): 255 M⁻¹ s⁻¹

CO[C@H]1O[C@H](CNC(=O)/C=C/c2ccccc2C)[C@@H](O)[C@H](O)[C@@H]1O [11e, Methyl 6-(2-methylcinnamido)-6-deoxy-α-D-mannopyranoside]
IC50 (LecB [1]): 62.7 µM
rIC50 (MeMan) (LecB [1]): 0.29

CO[C@H]1O[C@H](CNS(=O)(=O)c2ccccc2)[C@@H](O)[C@H](O)[C@@H]1O [10a, Methyl 6-(phenylsulfonylamido)-6-deoxy-α-D-mannopyranoside]
rIC50 (MeMan) (LecB [1]): 0.09

CO[C@H]1O[C@H](CNS(=O)(=O)c2c(C)cc(C)cc2C)[C@@H](O)[C@H](O)[C@@H]1O [10e, Methyl 6-(2,4,6-trimethylphenylsulfonylamido)-6-deoxy-α-D-mannopyranoside]
rIC50 (MeMan) (LecB [1]): 0.015

CO[C@H]1O[C@H](CNC(=O)c2ccccc2Cl)[C@@H](O)[C@H](O)[C@@H]1O [11s, Methyl 6-(2-chlorobenzoylamido)-6-deoxy-α-D-mannopyranoside]
IC50 (LecB [1]): 239 µM
rIC50 (MeMan) (LecB [1]): 1.09

CO[C@H]1O[C@H](CNC(=O)/C=C/c2ccc([N+](=O)[O-])cc2)[C@@H](O)[C@H](O)[C@@H]1O [11i, Methyl 6-(4-nitrocinnamido)-6-deoxy-α-D-mannopyranoside]
IC50 (LecB [1]): 106 µM
rIC50 (MeMan) (LecB [1]): 0.49

Cc1cc(C)c(S(=O)(=O)NC[C@H]2OC(C)[C@@H](O)C(O)C2O)c(C)c1 (stereo partly drawn) [13b, N-(6S-Methyl-3R,4R,5R-trihydroxy-tetrahydropyranosyl-2R-methyl)-2,4,6-trimethylphenyl sulfonamide]
kd (LecB [2]): 0.00041 s⁻¹
kon (LecB [2]): 1260 M⁻¹ s⁻¹

COc1ccccc1/C=C/C(=O)NC[C@H]1O[C@H](OC)[C@@H](O)[C@@H](O)[C@@H]1O [11b, Methyl 6-(2-methoxycinnamido)-6-deoxy-α-D-mannopyranoside]
IC50 (LecB [1]): 45.8 µM
rIC50 (MeMan) (LecB [1]): 0.21

CO[C@H]1O[C@H](CNC(=O)/C=C/c2ccc(N)cc2)[C@@H](O)[C@H](O)[C@@H]1O [11j, Methyl 6-(4-aminocinnamido)-6-deoxy-α-D-mannopyranoside]
IC50 (LecB [1]): 53.2 µM
rIC50 (MeMan) (LecB [1]): 0.24

CO[C@H]1O[C@H](CNS(=O)(=O)c2c(C(C)C)cc(C(C)C)cc2C(C)C)[C@@H](O)[C@H](O)[C@@H]1O [10f, Methyl 6-(2,4,6-triisopropylphenylsulfonylamido)-6-deoxy-α-D-mannopyranoside]
IC50 (LecB [1]): 11.5 µM
rIC50 (MeMan) (LecB [1]): 0.05

CO[C@H]1O[C@H](CNS(=O)(=O)c2ccc([N+](=O)[O-])cc2)[C@@H](O)[C@H](O)[C@@H]1O [10d, Methyl 6-(4-nitrophenylsulfonylamido)-6-deoxy-α-D-mannopyranoside]
IC50 (LecB [1]): 47.4 µM
rIC50 (MeMan) (LecB [1]): 0.21

CO[C@H]1O[C@H](CNC(=O)c2ccc3ccccc3c2)[C@@H](O)[C@H](O)[C@@H]1O [11t, Methyl 6-(2-naphtoylamido)-6-deoxy-α-D-mannopyranoside]
IC50 (LecB [1]): 118 µM
rIC50 (MeMan) (LecB [1]): 0.54

CO[C@H]1O[C@H](CNC(=O)/C=C/c2cccc([N+](=O)[O-])c2)[C@@H](O)[C@H](O)[C@@H]1O [11f, Methyl 6-(3-nitrocinnamido)-6-deoxy-α-D-mannopyranoside]
IC50 (LecB [1]): 53.4 µM
rIC50 (MeMan) (LecB [1]): 0.25

CC1O[C@H](CNS(=O)(=O)/C=C/c2ccccc2)C(O)C(O)[C@@H]1O (stereo partly drawn) [compound 15, N-(6S-Methyl-3R,4R,5R-trihydroxy-tetrahydropyranosyl-2R-methyl)-trans-β-styrene sulfonamide]
IC50 (LecB [1]): 12.7 µM

CO[C@H]1O[C@H](CNS(=O)(=O)c2ccc(C)cc2)[C@@H](O)[C@H](O)[C@@H]1O [10b, Methyl 6-(p-tosylamido)-6-deoxy-α-D-mannopyranoside]
IC50 (LecB [1]): 68.2 µM
rIC50 (MeMan) (LecB [1]): 0.31

CO[C@H]1O[C@H](CNC(=O)/C=C/c2ccc(C)cc2)[C@@H](O)[C@H](O)[C@@H]1O [11k, Methyl 6-(4-methylcinnamido)-6-deoxy-α-D-mannopyranoside]
rIC50 (MeMan) (LecB [1]): 0.16

COC1O[C@H](CNS(=O)(=O)/C=C/c2ccccc2)C(O)C(O)[C@@H]1O (stereo partly drawn) [compound 14, Methyl 6-(trans-β-styrenesulfonylamido)-6-deoxy-α-D-mannopyranoside]
IC50 (LecB [1]): 79 µM

CO[C@H]1O[C@H](CNC(=O)/C=C/c2ccccc2[N+](=O)[O-])[C@@H](O)[C@H](O)[C@@H]1O [11c, Methyl 6-(2-nitrocinnamido)-6-deoxy-α-D-mannopyranoside]
IC50 (LecB [1]): 75.5 µM
rIC50 (MeMan) (LecB [1]): 0.35

CO[C@H]1O[C@H](CNC(=O)/C=C/c2cccc(N)c2)[C@@H](O)[C@H](O)[C@@H]1O [11g, Methyl 6-(3-aminocinnamido)-6-deoxy-α-D-mannopyranoside]
IC50 (LecB [1]): 63 µM
rIC50 (MeMan) (LecB [1]): 0.29

CO[C@H]1O[C@H](CNC(=O)/C=C/c2ccccc2N)[C@@H](O)[C@H](O)[C@@H]1O [11d, Methyl 6-(2-aminocinnamido)-6-deoxy-α-D-mannopyranoside]
IC50 (LecB [1]): 52.6 µM
rIC50 (MeMan) (LecB [1]): 0.24

COc1ccc(/C=C/C(=O)NC[C@H]2O[C@H](OC)[C@@H](O)[C@@H](O)[C@@H]2O)cc1 [11h, Methyl 6-(4-methoxycinnamido)-6-deoxy-α-D-mannopyranoside]
IC50 (LecB [1]): 66 µM
rIC50 (MeMan) (LecB [1]): 0.3

CO[C@H]1O[C@H](CNC(=O)/C=C/c2ccc3c(c2)OCO3)[C@@H](O)[C@H](O)[C@@H]1O [11o, Methyl 6-(3,4-methylenedioxycinnamido)-6-deoxy-α-D-mannopyranoside]
IC50 (LecB [1]): 31.8 µM
rIC50 (MeMan) (LecB [1]): 0.15

CO[C@H]1O[C@H](CNC(=O)Cc2ccccc2)[C@@H](O)[C@H](O)[C@@H]1O [11q, Methyl 6-(phenylacetamido)-6-deoxy-α-D-mannopyranoside]
IC50 (LecB [1]): 205 µM
rIC50 (MeMan) (LecB [1]): 0.93

CO[C@H]1O[C@H](CNS(=O)(=O)c2ccc(Br)cc2)[C@@H](O)[C@H](O)[C@@H]1O [10c, Methyl 6-(4-bromophenylsulfonylamido)-6-deoxy-α-D-mannopyranoside]
IC50 (LecB [1]): 24.9 µM
rIC50 (MeMan) (LecB [1]): 0.12

CO[C@H]1O[C@H](CNC(=O)/C=C/c2ccc(Cl)cc2)[C@@H](O)[C@H](O)[C@@H]1O [11l, Methyl 6-(4-chlorocinnamido)-6-deoxy-α-D-mannopyranoside]
IC50 (LecB [1]): 48.4 µM
rIC50 (MeMan) (LecB [1]): 0.22

COc1ccc(/C=C/C(=O)NC[C@H]2O[C@H](OC)[C@@H](O)[C@@H](O)[C@@H]2O)cc1OC [11n, Methyl 6-(3,4-dimethoxycinnamido)-6-deoxy-α-D-mannopyranoside]
rIC50 (MeMan) (LecB [1]): 0.13
kd (LecB [2]): 0.0013 s⁻¹

CO[C@H]1O[C@H](CNC(=O)/C=C/c2ccc(Cl)cc2Cl)[C@@H](O)[C@H](O)[C@@H]1O [11m, Methyl 6-(2,4-dichlorocinnamido)-6-deoxy-α-D-mannopyranoside]
IC50 (LecB [1]): 71 µM
rIC50 (MeMan) (LecB [1]): 0.32
